Data from patent US20100310542A1, “Pharmaceutical Compositions for treating wouds and related methods” (HEALOR LTD., priority 2007, published 2010).

Key:
[1] = tested on: full thickness skin incisions; test: incision wound healing in mice, percent of healed wounds; type: in vivo, C57BL/6J mice; settings: agent alone, all formulations (A-C); daily, 7 days; vs groups treated with formulations alone
Procedure: In vivo incision wound generation and inducement of inflammation: Full thickness (20 mm long) skin incisions were performed on the upper back of anesthetized C57BL/6J mice (6 mice per group). […] the incision, wounds were treated daily with insulin (10^−6 M; 0.1 units/ml); pseudosubstrate PKCα peptide, 1 μM (PKCα inhibitor); or Insulin+PKCα inhibitor (Myr-pseudosubstrate PKCα peptide, 1 μM and insulin 0.1 units) applied directly on the wounds in the various formulations (Formulations A-C) as described above. After 7 days, wounds were excised and the percentage of healed wounds was evaluated by examining the morphology and histology of the wounds. Results are presented as percent of healed wounds relative to the total number of wounds per group. […] Full thickness (20 mm long) skin incisions were performed on the upper back of anesthetized C57BL/6J mice (6 mice per group). […] After 7 days, wounds were excised and the percentage of healed wounds was evaluated by examining the morphology and histology of the wounds. […]

[2] = tested on: primary murine keratinocytes; test: in vitro scratch assay, wound closure with insulin in Formulation C and D; type: cell-based; settings: insulin 0.1 units/ml, 48 hours
Procedure: Murine keratinocytes were isolated and cultured as described above. After five days, confluent keratinocytes were subjected in vitro scratch assays to follow wound healing. Following wound formation Insulin (insulin 10^−6 M; 0.1 units/ml) was added to the cell cultures in the various formulations (Formulation C and D) described above. Wound closure was followed for 48 hours. This experiment was carried out in triplicate. Wound closure is presented as the percent of closure following 48 hours of treatment in FIG. 6B.
Cultures of 5 day old, confluent keratinocytes were subjected to in vitro scratch assays and wound healing was examined. Following wound formation, Insulin (10^−6 M; 0.1 units/ml) was added to cell cultures in the various formulations (Formulation C and D) as described above. Wound closure was followed for 48 hours. Experiments were carried out in triplicate. (A) Photographs of representative cell culture dishes are presented. (B) Wound closure is presented as percent of closure following 48 hours of treatment. (C) Proliferation assays were performed on cultured cells in the wound using the thymidine incorporation proliferation assay described above.

[3] = tested on: primary murine keratinocytes; test: cell proliferation by [3H]thymidine incorporation; type: cell-based; settings: insulin 0.1 units/ml
Procedure: Cell proliferation: Cell proliferation was measured by [^3H]thymidine incorporation in 6 well plates. Cells were pulsed with [^3H]thymidine (3 μCi/ml) for 1 h. After incubation, cells were washed five times with PBS and 5% TCA was added into each well for 1 h. The solution was removed and cells were solubilized in 1 M NaOH. The labeled thymidine incorporated into cells was counted in a ^3H-window of TRI-CARB™ liquid scintillation counter.
Next, proliferation of cultured cells in the wound was evaluated utilizing thymidine incorporation (FIG. 6C). Cell proliferation was measured by [^3H]thymidine incorporation in 6 well plates. Cells were placed in […] and pulsed with [^3H]thymidine (3 μCi/ml) for 1 h. After incubation, cells were washed five times with PBS and 5% TCA was added to each well for 1 h. This solution was then removed and cells were solubilized in 1 M NaOH. The labeled thymidine incorporated into the cells was counted in the ^3H-window of a liquid scintillation counter. As shown in FIGS. 6A-C the addition of KCl changed insulin induced wound closure and cell proliferation.
Cultures of 5 day old, confluent keratinocytes were subjected to in vitro scratch assays and wound healing was examined. Following wound formation, Insulin (10^−6 M; 0.1 units/ml) was added to cell cultures in the various formulations (Formulation C and D) as described above. […]

[4] = tested on: keratinocytes from the tails of adult mice; test: cell proliferation, Rapid Cell Proliferation Kit, pre-incubation in medium B; type: cell-based; settings: pre-incubation of cells in medium B for 24 hours vs treatment parallel to medium change
Procedure: Medium A and B are both EMEM eagle's minimal essential medium from Biological Industries (Israel) containing 8% CHELEX™ treated fetal bovine serum. CHELEX™ is a strong chelator which binds free Ca^2+ and Mg^2+ ions to prevent these ions from being bioavailable to the cultured cells. […] The influence of pre-incubation of keratinocytes in medium B on the effects of Insulin and Insulin+PKCα inhibitor on cell proliferation in vitro was evaluated. Cultures of 5 day old, confluent keratinocytes from the tails of adult mice (7-10 months up to 2 years) were allowed to proliferate in vitro. After 5 days in MEM (medium A), the growth medium was changed to medium B (described above). Parallel to the medium changing or 24 hours following it, cells were treated with Insulin or with Insulin+PKCα inhibitor. The proliferation rate of the cells was measured with the commercially available Rapid Cell Proliferation Kit (Cat. No. QIA127; Calbiochem). The Experiment was carried out in hexaplicate. Results are presented as percent of untreated cells (control). […] Cultures of 5 day old, confluent keratinocytes prepared from the tails of adult mice (7-10 months up to 2 years) were subjected to proliferation assays utilizing a commercially available Rapid Cell Proliferation Kit (Cat. No. QIA127; Calbiochem). After 5 days in MEM, the growth medium was changed to medium B as described above. […]

[5] = Formulation D (Tris + KCl 0.4 mg/ml)

## Insulin: human recombinant insulin, identified as insulin, USP insulin or Ins USP
[1]
  healing of wounds (percent of healed wounds): did not promote wound healing efficacy
[2]; Formulation C (Tris)
  wound closure in vitro: inhibited insulin induced wound closure
[2]; [5]
  wound closure in vitro: induced partial wound closure
[3]; Formulation C (Tris)
  cell proliferation (thymidine incorporation): inhibited insulin induced wound closure and cell proliferation
[3]; [5]
  cell proliferation (thymidine incorporation): induced partial wound closure and cell proliferation
[4]
  effect on cell proliferation (percent of untreated cells): enhances the effects
